Experimental data taken from patent US10336761B2, “TGFβ receptor antagonist” (BRISTOL-MYERS SQUIBB COMPANY, priority 2015, dated 2019).

Molecular target: HIS-TGFβR1 T204D (Homo sapiens (Human), UniProt P36897, T204D)
Experiment: HTRF probe-displacement assay, HIS-TGFβR1 T204D
Format: binding
Conditions: 1 hour at room temperature

HIS-TGFβR1 T204D, sequence (P36897 34-503 T204D): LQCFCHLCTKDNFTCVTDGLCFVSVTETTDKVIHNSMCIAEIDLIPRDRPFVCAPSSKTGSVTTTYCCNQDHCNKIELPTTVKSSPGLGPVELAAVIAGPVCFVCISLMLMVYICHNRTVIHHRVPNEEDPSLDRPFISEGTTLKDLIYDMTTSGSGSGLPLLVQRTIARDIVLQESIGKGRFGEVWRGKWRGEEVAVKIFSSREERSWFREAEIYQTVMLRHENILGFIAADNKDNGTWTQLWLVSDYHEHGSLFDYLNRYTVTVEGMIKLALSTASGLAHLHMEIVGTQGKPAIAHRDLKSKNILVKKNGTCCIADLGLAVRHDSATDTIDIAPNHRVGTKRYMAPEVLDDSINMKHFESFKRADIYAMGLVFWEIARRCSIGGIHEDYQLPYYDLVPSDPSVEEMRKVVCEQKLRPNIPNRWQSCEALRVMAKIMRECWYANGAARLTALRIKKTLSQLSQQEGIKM

SMILES | IC50 [nM]
O=C(Nc1cc(Nc2nc(-c3cccc(C(F)(F)F)n3)nn3cccc23)ccn1)[C@@H]1CCCN1 [Example 326, (2S)—N-[4-({2-[6-(trifluoromethyl)pyridin-2-yl]pyrrolo[2,1-f][1,2,4]triazin-4-yl}amino)pyridin-2-yl]pyrrolidine-2-carboxamide] | 88
Fc1cnccc1Nc1nc(-c2cscn2)nn2cccc12 [Example 262, 3-fluoro-N-[2-(1,3-thiazol-4-yl)pyrrolo[2,1-f][1,2,4]triazin-4-yl]pyridin-4-amine] | 8.2
O=C(NCCN1CCS(=O)(=O)CC1)c1cnccc1Nc1nc(-c2cccc(C(F)(F)F)n2)nn2cccc12 [Example 179, N-[2-(1,1-dioxo-1,4-thiomorpholin-4-yl)ethyl]-4-({2-[6-(trifluoromethyl)pyridin-2-yl]pyrrolo[2,1-f][1,2,4]triazin-4-yl}amino)pyridine-3-carboxamide] | 260
O=C(NCCN1CCCCC1)c1cnccc1Nc1nc(-c2ccccn2)nn2cccc12 [Example 144, N-[2-(piperidin-1-yl)ethyl]-4-{[2-(pyridin-2-yl)pyrrolo[2,1-f][1,2,4]triazin-4-yl]amino}pyridine-3-carboxamide] | 25
CC(C)(O)CCNC(=O)c1cnccc1Nc1nc(-c2cccc(C(F)F)n2)nn2cccc12 [Example 187, 4-({2-[6-(difluoromethyl)pyridin-2-yl]pyrrolo[2,1-f][1,2,4]triazin-4-yl}amino)-N-(3-hydroxy-3-methylbutyl)pyridine-3-carboxamide] | 21
O=C(CCN1CC(F)(F)C1)Nc1cc(Nc2nc(-c3cccc(C(F)(F)F)n3)nn3cccc23)ccn1 [Example 341, 3-(3,3-difluoroazetidin-1-yl)-N-[4-({2-[6-(trifluoromethyl)pyridin-2-yl]pyrrolo[2,1-f][1,2,4]triazin-4-yl}amino)pyridin-2-yl]propanamide] | 2.7
CCNC(=O)Nc1cc2c(Nc3ccncc3F)nc(-c3cccc(OC)n3)nn2c1 [Example 72, 3-ethyl-1-{4-[(3-fluoropyridin-4-yl)amino]-2-(6-methoxypyridin-2-yl)pyrrolo[2,1-f][1,2,4]triazin-6-yl}urea] | 370
COc1cccc(-c2nc(Nc3ccncc3NC(=O)CN3CCOCC3)c3cccn3n2)n1 [Example 212, N-(4-{[2-(6-methoxypyridin-2-yl)pyrrolo[2,1-f][1,2,4]triazin-4-yl]amino}pyridin-3-yl)-2-(morpholin-4-yl)acetamide] | 3000
O=C(N[C@@H]1CCCC[C@H]1O)c1cnccc1Nc1nc(-c2cccc(C(F)F)n2)nn2cccc12 [Example 180, 4-({2-[6-(difluoromethyl)pyridin-2-yl]pyrrolo[2,1-f][1,2,4]triazin-4-yl}amino)-N-[(1R,2R)-2-hydroxycyclohexyl]pyridine-3-carboxamide] | 380
Cc1cccc(-c2nc(Nc3ccncc3C(=O)NCCN3CCCCC3)c3cccn3n2)n1 [Example 155, 4-{[2-(6-methylpyridin-2-yl)pyrrolo[2,1-f][1,2,4]triazin-4-yl]amino}-N-[2-(piperidin-1-yl)ethyl]pyridine-3-carboxamide] | 6.8
Fc1cnccc1Nc1nc(-c2ccccn2)nn2ccc(CN3CCC(F)(F)CC3)c12 [Example 27, N-{5-[(4,4-difluoropiperidin-1-yl)methyl]-2-(pyridin-2-yl)pyrrolo[2,1-f][1,2,4]triazin-4-yl}-3-fluoropyridin-4-amine] | 1.3
COc1cccc(-c2nc(Nc3ccnc(NCCN4CCC(O)CC4)c3)c3c(C)ccn3n2)n1 [Example 136, 1-{2-[(4-{[2-(6-methoxypyridin-2-yl)-5-methylpyrrolo[2,1-f][1,2,4]triazin-4-yl]amino}pyridin-2-yl)amino]ethyl}piperidin-4-ol] | 720
Fc1cnccc1Nc1nc(-c2cccc(OC(F)(F)F)n2)nn2cccc12 [Example 289, 3-fluoro-N-{2-[6-(trifluoromethoxy)pyridin-2-yl]pyrrolo[2,1-f][1,2,4]triazin-4-yl}pyridin-4-amine] | 3
Fc1cnccc1Nc1nc(-c2ccc[nH]2)nn2cccc12 [Example 89, 3-fluoro-N-[2-(1H-pyrrol-2-yl)pyrrolo[2,1-f][1,2,4]triazin-4-yl]pyridin-4-amine] | 190
COc1cccc(-c2nc(Nc3ccncc3F)c3c(CN4CCC(F)(F)CC4)ccn3n2)n1 [Example 25, N-{5-[(4,4-difluoropiperidin-1-yl)methyl]-2-(6-methoxypyridin-2-yl)pyrrolo[2,1-f][1,2,4]triazin-4-yl}-3-fluoropyridin-4-amine] | 9
COc1cccc(-c2nc(Nc3ccncc3F)c3ccc(F)n3n2)n1 [Example 41, 3-fluoro-N-[7-fluoro-2-(6-methoxypyridin-2-yl)pyrrolo[2,1-f][1,2,4]triazin-4-yl]pyridin-4-amine] | 87
COC(=O)Nc1cc(Nc2nc(-c3cccc(C(F)(F)F)n3)nn3cccc23)ccn1 [Example 312, Methyl N-[4-({2-[6-(trifluoromethyl)pyridin-2-yl]pyrrolo[2,1-f][1,2,4]triazin-4-yl}amino)pyridin-2-yl]carbamate] | 0.87
Cc1cccc(-c2nc(Nc3ccncc3C(=O)NC[C@H](O)CO)c3cccn3n2)n1 [Example 158, N-[(2S)-2,3-dihydroxypropyl]-4-{[2-(6-methylpyridin-2-yl)pyrrolo[2,1-f][1,2,4]triazin-4-yl]amino}pyridine-3-carboxamide] | 7.9
Cc1cccc(-c2nc(Nc3ccncc3C(=O)NCCN3CCS(=O)(=O)CC3)c3cccn3n2)n1 [Example 153, N-[2-(1,1-dioxo-1,4-thiomorpholin-4-yl)ethyl]-4-{[2-(6-methylpyridin-2-yl)pyrrolo[2,1-f][1,2,4]triazin-4-yl]amino}pyridine-3-carboxamide] | 22
Cc1csc(-c2nc(Nc3ccncc3)c3cccn3n2)n1 [Example 88, N-[2-(4-methyl-1,3-thiazol-2-yl)pyrrolo[2,1-f][1,2,4]triazin-4-yl]pyridin-4-amine] | 1.5
OC[C@@H](O)CNCc1ccn2nc(-c3ccccn3)nc(Nc3ccncc3F)c12 [Example 287, (2S)-3-[({4-[(3-fluoropyridin-4-yl)amino]-2-(pyridin-2-yl)pyrrolo[2,1-f][1,2,4]triazin-5-yl}methyl)amino]propane-1,2-diol] | 0.84
Cc1cccc(-c2nc(Nc3ccncc3C(=O)NCCCN3CCCC3)c3cccn3n2)n1 [Example 221, 4-{[2-(6-methylpyridin-2-yl)pyrrolo[2,1-f][1,2,4]triazin-4-yl]amino}-N-[3-(pyrrolidin-1-yl)propyl]pyridine-3-carboxamide] | 4
CC(C)(C)C(=O)Nc1cc(Nc2nc(-c3cccc(C(F)(F)F)n3)nn3cccc23)ccn1 [Example 342, 2,2-dimethyl-N-[4-({2-[6-(trifluoromethyl)pyridin-2-yl]pyrrolo[2,1-f][1,2,4]triazin-4-yl}amino)pyridin-2-yl]propanamide] | 160

Results, then the compound that gave them:

IC50 [nM] | SMILES
5 | Cc1nc(-c2nc(Nc3ccncc3C(=O)NCCN3CCCCC3)c3cccn3n2)ccc1F [Example 141, 4-{[2-(5-fluoro-6-methylpyridin-2-yl)pyrrolo[2,1-f][1,2,4]triazin-4-yl]amino}-N-[2-(piperidin-1-yl)ethyl]pyridine-3-carboxamide]
5.8 | COc1nc(-c2nc(Nc3ccncc3F)c3cccn3n2)cs1 [Example 249, 3-fluoro-N-[2-(2-methoxy-1,3-thiazol-4-yl)pyrrolo[2,1-f][1,2,4]triazin-4-yl]pyridin-4-amine]
32 | COc1cccc(-c2nc(Nc3ccncc3F)c3c(C(C)(C)O)ccn3n2)n1 [Example 48, 2-{4-[(3-fluoropyridin-4-yl)amino]-2-(6-methoxypyridin-2-yl)pyrrolo[2,1-f][1,2,4]triazin-5-yl}propan-2-ol]
15 | CCOc1cccc(-c2nc(Nc3ccncc3F)c3cccn3n2)n1 [Example 102, N-[2-(6-ethoxypyridin-2-yl)pyrrolo[2,1-f][1,2,4]triazin-4-yl]-3-fluoropyridin-4-amine]
4.8 | Cc1cccc(-c2nc(Nc3ccncc3C(=O)NCCCO)c3cccn3n2)n1 [Example 159, N-(3-hydroxypropyl)-4-{[2-(6-methylpyridin-2-yl)pyrrolo[2,1-f][1,2,4]triazin-4-yl]amino}pyridine-3-carboxamide]
5.3 | Cc1cccc(-c2nc(Nc3ccncc3C(=O)NCCN3CCCC3)c3cccn3n2)n1 [Example 152, 4-{[2-(6-methylpyridin-2-yl)pyrrolo[2,1-f][1,2,4]triazin-4-yl]amino}-N-[2-(pyrrolidin-1-yl)ethyl]pyridine-3-carboxamide]
4 | COc1cccc(-c2nc(Nc3ccncc3F)c3cccn3n2)n1 [Example 58, 3-fluoro-N-[2-(6-methoxypyridin-2-yl)pyrrolo[2,1-f][1,2,4]triazin-4-yl]pyridin-4-amine]
690 | COc1cccc(-c2nc(Nc3ccncc3F)c3cc(NC(=O)N4CCOCC4)cn3n2)n1 [Example 105, N-{4-[(3-fluoropyridin-4-yl)amino]-2-(6-methoxypyridin-2-yl)pyrrolo[2,1-f][1,2,4]triazin-6-yl}morpholine-4-carboxamide]
12 | CS(=O)(=O)Nc1cccc(-c2nc(Nc3ccncc3F)c3cccn3n2)n1 [Example 77, N-(6-{4-[(3-fluoropyridin-4-yl)amino]pyrrolo[2,1-f][1,2,4]triazin-2-yl}pyridin-2-yl)methanesulfonamide]
260 | COc1cccc(-c2nc(Nc3ccncc3F)c3c(CCN4CCC(N)CC4)ccn3n2)n1 [Example 114, N-{5-[2-(4-aminopiperidin-1-yl)ethyl]-2-(6-methoxypyridin-2-yl)pyrrolo[2,1-f][1,2,4]triazin-4-yl}-3-fluoropyridin-4-amine]
13 | C=CCOc1cnccc1Nc1nc(-c2ccccn2)nn2cccc12 [Example 79, 3-(prop-2-en-1-yloxy)-N-[2-(pyridin-2-yl)pyrrolo[2,1-f][1,2,4]triazin-4-yl]pyridin-4-amine]
160 | CCc1cc2c(Nc3ccncc3F)nc(-c3cccc(OC)n3)nn2c1 [Example 42, N-[6-ethyl-2-(6-methoxypyridin-2-yl)pyrrolo[2,1-f][1,2,4]triazin-4-yl]-3-fluoropyridin-4-amine]
